From PubChem BioAssay AID330 (DTP/NCI, 2004)
Values joined by “and” are separate entries in the source; they are usually repeats but may differ in a detail not shown here. Identical values can stand only once. Inconclusive results and toxic doses are left out.

Test system: P388 leukemia ip, CD2F1 mice, survival T/C
Assay: NCI In Vivo Anticancer Drug Screen. Data for tumor model P388 Leukemia (intraperitoneal) in CD2F1 (CDF1) mice
Conditions: endpoint: median survival time, higher = longer survival
Outline: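 Mice carrying the transplanted tumor received test compound or vehicle. Survival was recorded in each group, and the value is the treated-group measurement divided by that of the vehicle-treated control group.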

[1] = dose: 50.0 mg/kg/injection, schedule: Q01DX009 (ip), vehicle: saline with Tween-80
[2] = dose: 100.0 mg/kg/injection, schedule: Q01DX009 (ip), vehicle: saline with Tween-80
[3] = dose: 200.0 mg/kg/injection, schedule: Q01DX009 (ip), vehicle: saline with Tween-80
[4] = dose: 100.0 mg/kg/injection, schedule: Q04DX003 (ip), vehicle: saline
[5] = dose: 200.0 mg/kg/injection, schedule: Q04DX003 (ip), vehicle: saline
[6] = dose: 400.0 mg/kg/injection, schedule: Q04DX003 (ip), vehicle: saline
[7] = dose: 12.5 mg/kg/injection, schedule: Q01DX009 (ip), vehicle: other
[8] = dose: 25.0 mg/kg/injection, schedule: Q01DX009 (ip), vehicle: other
[9] = dose: 12.5 mg/kg/injection, schedule: Q01DX009 (ip), vehicle: distilled water + Tween-80
[10] = dose: 50.0 mg/kg/injection, schedule: Q01DX009 (ip), vehicle: distilled water + Tween-80
[11] = dose: 100.0 mg/kg/injection, schedule: Q01DX009 (ip), vehicle: distilled water + Tween-80
[12] = dose: 200.0 mg/kg/injection, schedule: Q01DX009 (ip), vehicle: distilled water + Tween-80
[13] = dose: 50.0 mg/kg/injection, schedule: Q01DX009 (ip), vehicle: saline
[14] = dose: 100.0 mg/kg/injection, schedule: Q01DX009 (ip), vehicle: saline

Question: Which results are given for `C=CCc1cc(Nc2c3ccc(Cl)cc3nc3ccc(OC)cc23)cc(CN(CC)CC)c1O`?
Answer: T/C (dose: 3.12 mg/kg/injection, schedule: Q01DX005 (ip), vehicle: Klucel (hydroxypropylcellulose) (HPC)): 106 % of control and 110 % of control; T/C (dose: 6.0 mg/kg/injection, schedule: Q01DX005 (ip), vehicle: Klucel (hydroxypropylcellulose) (HPC)): 118 % of control; T/C (dose: 6.25 mg/kg/injection, schedule: Q01DX005 (ip), vehicle: Klucel (hydroxypropylcellulose) (HPC)): 109 % of control and 110 % of control; T/C (dose: 12.0 mg/kg/injection, schedule: Q01DX005 (ip), vehicle: Klucel (hydroxypropylcellulose) (HPC)): 123 % of control

Question: Which T/C (dose: 3.13 mg/kg/injection, schedule: Q01DX009 (ip), vehicle: saline) does the source give for `O=C(O)CCC(=O)CCl` here?
Answer: 109 % of control

Question: And the T/C (dose: 25.0 mg/kg/injection, schedule: Q04DX003 (ip), vehicle: saline with Tween-80)?
Answer: 104 % of control

Question: What about the T/C (dose: 50.0 mg/kg/injection, schedule: Q04DX003 (ip), vehicle: saline with Tween-80) of the same molecule?
Answer: 108 % of control

Question: With `CCOC(=O)c1ccc(NC(=O)O/N=C/c2ccncc2)cc1` as the molecule, how does the T/C (dose: 6.25 mg/kg/injection, schedule: Q01DX009 (ip), vehicle: saline with Tween-80) read?
Answer: 88 % of control

Question: And the T/C (dose: 12.5 mg/kg/injection, schedule: Q01DX009 (ip), vehicle: saline with Tween-80)?
Answer: 112 % of control

Question: What about the T/C (dose: 25.0 mg/kg/injection, schedule: Q01DX009 (ip), vehicle: saline with Tween-80) of the same molecule?
Answer: 88 % of control

Question: What about the T/C [1] of the same molecule?
Answer: 93 % of control

Question: And the T/C [2]?
Answer: 94 % of control

Question: And the T/C [3]?
Answer: 90 % of control

Question: Which results are given for `CC/C(=N\NS(=O)(=O)c1ccc(C)cc1)c1ccc(C)cc1`?
Answer: T/C [4]: 100 % of control; T/C [5]: 98 % of control; T/C [6]: 98 % of control

Question: Which results are given for `COc1cccc2c1C(=O)c1c(O)c3c(c(O)c1C2=O)CC(O)(/C(C)=N/NC(=S)c1ccccc1)CC3OC1CC(N)C(O)C(C)O1` (stereo unspecified)?
Answer: T/C (dose: 3.13 mg/kg/injection, schedule: Q01DX009 (ip), vehicle: other): 88 % of control; T/C (dose: 6.25 mg/kg/injection, schedule: Q01DX009 (ip), vehicle: other): 96 % of control; T/C (dose: 6.25 mg/kg/injection, schedule: Q04DX003 (ip), vehicle: saline): 154 % of control; T/C [7]: 103 % of control; T/C (dose: 12.5 mg/kg/injection, schedule: Q04DX003 (ip), vehicle: saline): 159 % of control; T/C [8]: 88 % of control; T/C (dose: 25.0 mg/kg/injection, schedule: Q04DX003 (ip), vehicle: saline): 166 % of control

Question: For `C=C=CC(C)(O)c1ccc(-c2ccccc2)cc1` (stereo unspecified), which T/C (dose: 50.0 mg/kg/injection, schedule: Q01DX005 (ip), vehicle: Klucel (hydroxypropylcellulose) (HPC)) is on record?
Answer: 97 % of control

Question: What about the T/C (dose: 100.0 mg/kg/injection, schedule: Q01DX005 (ip), vehicle: Klucel (hydroxypropylcellulose) (HPC)) of the same molecule?
Answer: 100 % of control

Question: And the T/C (dose: 200.0 mg/kg/injection, schedule: Q01DX005 (ip), vehicle: Klucel (hydroxypropylcellulose) (HPC))?
Answer: 104 % of control

Question: What does the source list for `CNCc1nc2sc3c(c2c(=O)[nH]1)CCCC3`?
Answer: T/C [1]: 97 % of control; T/C [2]: 105 % of control; T/C [3]: 102 % of control

Question: What does the source list for `CC(=O)OCc1ccc(/C=c2/[nH]c(=O)/c(=C\c3ccc(COC(C)=O)o3)[nH]c2=O)o1`?
Answer: T/C [9]: 88 % of control; T/C (dose: 25.0 mg/kg/injection, schedule: Q01DX009 (ip), vehicle: distilled water + Tween-80): 90 % of control; T/C [10]: 96 % of control; T/C [11]: 114 % of control; T/C [12]: 99 % of control

Question: What does the source list for `CC(NC(=O)C(CO)NC(=O)c1cnc2ccccc2n1)C(=O)OC(C)(C)C` (stereo unspecified)?
Answer: T/C (dose: 60.0 mg/kg/injection, schedule: Q01DX005 (ip), vehicle: DMSO): 98 % of control; T/C (dose: 120.0 mg/kg/injection, schedule: Q01DX005 (ip), vehicle: DMSO): 99 % of control; T/C (dose: 240.0 mg/kg/injection, schedule: Q01DX005 (ip), vehicle: DMSO): 109 % of control

Question: Which T/C (dose: 50.0 mg/kg/injection, schedule: Q01DX005 (ip), vehicle: saline) does the source give for `O=C(O)CCOCCC(=O)O` here?
Answer: 97 % of control

Question: What about the T/C (dose: 100.0 mg/kg/injection, schedule: Q01DX005 (ip), vehicle: saline) of the same molecule?
Answer: 97 % of control

Question: And the T/C (dose: 200.0 mg/kg/injection, schedule: Q01DX005 (ip), vehicle: saline)?
Answer: 97 % of control

Question: With `O=C(c1ncccc1O)N1CCCCC1` as the molecule, how does the T/C [9] read?
Answer: 88 % of control

Question: And the T/C [10]?
Answer: 92 % of control

Question: And the T/C [11]?
Answer: 99 % of control

Question: And the T/C [12]?
Answer: 100 % of control

Question: How did the T/C (dose: 100.0 mg/kg/injection, schedule: Q01DX001 (ip), vehicle: saline) turn out when `Cc1cc(N2CCOCC2)ccc1N=Nc1nc2ccccc2s1` was run?
Answer: 89 % of control

Question: And the T/C (dose: 200.0 mg/kg/injection, schedule: Q01DX001 (ip), vehicle: saline)?
Answer: 88 % of control

Question: `N=C(N)SCCC(=O)NCNC(=O)CCSC(=N)N` was tested. Which T/C (dose: 50.0 mg/kg/injection, schedule: Q01DX005 (ip), vehicle: suspension in saline) did it give?
Answer: 98 % of control

Question: What about the T/C (dose: 100.0 mg/kg/injection, schedule: Q01DX005 (ip), vehicle: suspension in saline) of the same molecule?
Answer: 99 % of control

Question: With `COc1ccc(-c2c(N)cnc(C(=O)O)c2C)c(O)c1OC` as the molecule, how does the T/C [7] read?
Answer: 95 % of control

Question: And the T/C [8]?
Answer: 104 % of control

Question: And the T/C (dose: 50.0 mg/kg/injection, schedule: Q01DX009 (ip), vehicle: other)?
Answer: 112 % of control

Question: And the T/C (dose: 100.0 mg/kg/injection, schedule: Q01DX009 (ip), vehicle: other)?
Answer: 95 % of control

Question: What about the T/C (dose: 200.0 mg/kg/injection, schedule: Q01DX009 (ip), vehicle: other) of the same molecule?
Answer: 100 % of control

Question: Which results are given for `CN1CCCN(C)C1c1ccccc1`?
Answer: T/C (dose: 25.0 mg/kg/injection, schedule: Q01DX009 (ip), vehicle: saline): 105 % of control; T/C [13]: 110 % of control; T/C [14]: 95 % of control

Question: Which results are given for `COc1cc(CO)c(CO)cc1OC`?
Answer: T/C (dose: 0.75 mg/kg/injection, schedule: Q01DX005 (ip), vehicle: saline): 93 % of control; T/C (dose: 1.5 mg/kg/injection, schedule: Q01DX005 (ip), vehicle: saline): 95 % of control; T/C (dose: 3.0 mg/kg/injection, schedule: Q01DX005 (ip), vehicle: saline): 93 % of control; T/C (dose: 3.12 mg/kg/injection, schedule: Q01DX005 (ip), vehicle: saline): 98 % of control

Question: Which results are given for `ClC(Cl)Oc1ccccc1`?
Answer: T/C (dose: 10.0 mg/kg/injection, schedule: Q01DX009 (ip), vehicle: saline with Tween-80): 97 % of control; T/C (dose: 20.0 mg/kg/injection, schedule: Q01DX009 (ip), vehicle: saline with Tween-80): 106 % of control; T/C (dose: 40.0 mg/kg/injection, schedule: Q01DX009 (ip), vehicle: saline with Tween-80): 103 % of control

Question: What does the source list for `[Mn].[NH-]C(CSSCC(N)C(=O)O)C(=O)O` (stereo unspecified)?
Answer: T/C [4]: 97 % of control; T/C [5]: 114 % of control; T/C [6]: 106 % of control

Question: What does the source list for `O=S(=O)(O)CCCCS(=O)(=O)O`?
Answer: T/C [13]: 99 % of control; T/C [14]: 108 % of control; T/C (dose: 200.0 mg/kg/injection, schedule: Q01DX009 (ip), vehicle: saline): 110 % of control

Question: `O=C(Nc1ccc(C2=NCCN2)cc1)C1CCC(C(=O)Nc2ccc(C3=NCCN3)cc2)CC1` (stereo unspecified) was tested. Which T/C [2] did it give?
Answer: 227 % of control

Question: What about the T/C (dose: 100.0 mg/kg/injection, schedule: Q04DX003 (ip), vehicle: saline with Tween-80) of the same molecule?
Answer: 154 % of control

Question: And the T/C [3]?
Answer: 209 % of control

Question: And the T/C (dose: 200.0 mg/kg/injection, schedule: Q04DX003 (ip), vehicle: saline with Tween-80)?
Answer: 186 % of control

Question: And the T/C (dose: 264.0 mg/kg/injection, schedule: Q04DX003 (ip), vehicle: saline with Tween-80)?
Answer: 213 % of control

Question: And the T/C (dose: 400.0 mg/kg/injection, schedule: Q01DX009 (ip), vehicle: saline with Tween-80)?
Answer: 118 % of control

Question: And the T/C (dose: 400.0 mg/kg/injection, schedule: Q04DX003 (ip), vehicle: saline with Tween-80)?
Answer: 231 % of control and 254 % of control

Question: What about the T/C (dose: 600.0 mg/kg/injection, schedule: Q04DX003 (ip), vehicle: saline with Tween-80) of the same molecule?
Answer: 236 % of control

Question: `CC1(C)N=C(N/N=C/c2ccccc2)SP1(=O)NNc1ncccn1` (stereo unspecified) was tested. Which T/C (dose: 60.0 mg/kg/injection, schedule: Q01DX005 (ip), vehicle: Klucel (hydroxypropylcellulose) (HPC)) did it give?
Answer: 101 % of control

Question: And the T/C (dose: 120.0 mg/kg/injection, schedule: Q01DX005 (ip), vehicle: Klucel (hydroxypropylcellulose) (HPC))?
Answer: 103 % of control

Question: How did the T/C (dose: 50.0 mg/kg/injection, schedule: Q01DX005 (ip), vehicle: saline with Tween-80) turn out when `Nc1ccccc1N=Cc1c(O)c2ccccc2oc1=O` was run?
Answer: 93 % of control

Question: What about the T/C (dose: 100.0 mg/kg/injection, schedule: Q01DX005 (ip), vehicle: saline with Tween-80) of the same molecule?
Answer: 98 % of control
